Results published in PubChem BioAssay AID330 (DTP/NCI, 2004).
Values joined by “and” are separate entries in the source; they are usually repeats but may differ in a detail not shown here. Equal entries are not always repeated. Toxic doses and inconclusive results are not listed.

System: P388 leukemia ip, CD2F1 mice, survival T/C
Test: NCI In Vivo Anticancer Drug Screen. Data for tumor model P388 Leukemia (intraperitoneal) in CD2F1 (CDF1) mice
Details: endpoint: median survival time, higher = longer survival
Method in brief: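 Mice carrying the transplanted tumor received test compound or vehicle. Survival was recorded in each group, and the value is the treated-group measurement divided by that of the vehicle-treated control group.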

[1] = dose: 50.0 mg/kg/injection, schedule: Q01DX009 (ip), vehicle: saline
[2] = dose: 100.0 mg/kg/injection, schedule: Q01DX009 (ip), vehicle: saline
[3] = dose: 200.0 mg/kg/injection, schedule: Q01DX009 (ip), vehicle: saline
[4] = dose: 100.0 mg/kg/injection, schedule: Q04DX003 (ip), vehicle: saline with Tween-80
[5] = dose: 50.0 mg/kg/injection, schedule: Q01DX005 (ip), vehicle: saline with Tween-80
[6] = dose: 100.0 mg/kg/injection, schedule: Q01DX005 (ip), vehicle: saline with Tween-80
[7] = dose: 50.0 mg/kg/injection, schedule: Q01DX005 (ip), vehicle: Klucel (hydroxypropylcellulose) (HPC)
[8] = dose: 100.0 mg/kg/injection, schedule: Q01DX005 (ip), vehicle: Klucel (hydroxypropylcellulose) (HPC)
[9] = dose: 200.0 mg/kg/injection, schedule: Q01DX005 (ip), vehicle: Klucel (hydroxypropylcellulose) (HPC)
[10] = dose: 200.0 mg/kg/injection, schedule: Q04DX003 (ip), vehicle: saline with Tween-80
[11] = dose: 400.0 mg/kg/injection, schedule: Q04DX003 (ip), vehicle: saline with Tween-80
[12] = dose: 30.0 mg/kg/injection, schedule: Q01DX005 (ip), vehicle: saline with Tween-80
[13] = dose: 60.0 mg/kg/injection, schedule: Q01DX005 (ip), vehicle: saline with Tween-80
[14] = dose: 120.0 mg/kg/injection, schedule: Q01DX005 (ip), vehicle: saline with Tween-80
[15] = dose: 240.0 mg/kg/injection, schedule: Q01DX005 (ip), vehicle: saline with Tween-80
[16] = dose: 100.0 mg/kg/injection, schedule: Q01DX001 (ip), vehicle: saline with Tween-80
[17] = dose: 200.0 mg/kg/injection, schedule: Q01DX001 (ip), vehicle: saline with Tween-80
[18] = dose: 400.0 mg/kg/injection, schedule: Q01DX001 (ip), vehicle: saline with Tween-80
[19] = dose: 25.0 mg/kg/injection, schedule: Q01DX005 (ip), vehicle: saline with Tween-80

For `Cc1cc(C)[n+]2n1C(=O)C(c1ccc(C3C(=O)n4c(C)cc(C)[n+]4C3=O)cc1)C2=O` (stereo unspecified), the T/C (dose: 50.0 mg/kg/injection, schedule: Q01DX005 (ip), vehicle: Klucel + Tween-80) was 99 % of control, the T/C (dose: 100.0 mg/kg/injection, schedule: Q01DX005 (ip), vehicle: Klucel + Tween-80) was 97 % of control and the T/C (dose: 200.0 mg/kg/injection, schedule: Q01DX005 (ip), vehicle: Klucel + Tween-80) was 100 % of control.

For `OC(CO/N=C1\CCc2ccccc21)CN1CCOCC1` (stereo unspecified), the T/C (dose: 50.0 mg/kg/injection, schedule: Q01DX005 (ip), vehicle: saline) was 105 % of control, the T/C (dose: 100.0 mg/kg/injection, schedule: Q01DX005 (ip), vehicle: saline) was 104 % of control and the T/C (dose: 200.0 mg/kg/injection, schedule: Q01DX005 (ip), vehicle: saline) was 104 % of control.

In the case of `COC(=O)c1ccccc1-c1ccccc1C=O`, the T/C (dose: 100.0 mg/kg/injection, schedule: Q04DX002 (ip), vehicle: saline with Tween-80) was 97 % of control, the T/C (dose: 200.0 mg/kg/injection, schedule: Q04DX002 (ip), vehicle: saline with Tween-80) was 98 % of control and the T/C (dose: 400.0 mg/kg/injection, schedule: Q04DX002 (ip), vehicle: saline with Tween-80) was 100 % of control.

`CCO/C(C)=N\O` was tested, and the T/C (dose: 25.0 mg/kg/injection, schedule: Q04DX003 (ip), vehicle: Klucel (hydroxypropylcellulose) (HPC)) was 98 % of control, the T/C [1] was 103 % of control and the T/C (dose: 50.0 mg/kg/injection, schedule: Q04DX003 (ip), vehicle: Klucel (hydroxypropylcellulose) (HPC)) was 98 % of control. The T/C [2] was 97 % of control, the T/C (dose: 100.0 mg/kg/injection, schedule: Q04DX003 (ip), vehicle: Klucel (hydroxypropylcellulose) (HPC)) was 99 % of control and the T/C [3] was 101 % of control. The T/C (dose: 200.0 mg/kg/injection, schedule: Q04DX003 (ip), vehicle: Klucel (hydroxypropylcellulose) (HPC)) was 99 % of control.

For `CC(=O)C1=C(O)C2(O)C(=O)c3c(c(C)c4ccc(C)c(O)c4c3O)CC2C(N)C1=O` (stereo unspecified), the T/C (dose: 7.5 mg/kg/injection, schedule: Q01DX009 (ip), vehicle: saline + alcohol) was 103 % of control and 107 % of control and 120 % of control, the T/C (dose: 15.0 mg/kg/injection, schedule: Q01DX009 (ip), vehicle: saline + alcohol) was 103 % of control and the T/C (dose: 30.0 mg/kg/injection, schedule: Q01DX009 (ip), vehicle: saline + alcohol) was 119 % of control. For the same compound, the T/C (dose: 50.0 mg/kg/injection, schedule: Q04DX003 (ip), vehicle: saline with Tween-80) was 111 % of control and the T/C [4] was 111 % of control.

For `Clc1ccc(C2=NON(c3ccccn3)C3C=CC=CN23)cc1` (stereo unspecified), the T/C [5] was 97 % of control, the T/C [6] was 93 % of control and the T/C (dose: 200.0 mg/kg/injection, schedule: Q01DX005 (ip), vehicle: saline with Tween-80) was 93 % of control.

With `Nc1ncnc(Nc2ccc(S(N)(=O)=O)cc2)n1` the T/C (dose: 5.0 mg/kg/injection, schedule: Q01DX009 (ip), vehicle: Klucel (hydroxypropylcellulose) (HPC)) was 100 % of control, the T/C (dose: 10.0 mg/kg/injection, schedule: Q01DX009 (ip), vehicle: Klucel (hydroxypropylcellulose) (HPC)) was 97 % of control and the T/C (dose: 20.0 mg/kg/injection, schedule: Q01DX009 (ip), vehicle: Klucel (hydroxypropylcellulose) (HPC)) was 100 % of control.

In the case of `COc1ccccc1C(=O)c1ccccc1C(=O)O`, the T/C [7] was 101 % of control, the T/C [8] was 105 % of control and the T/C [9] was 103 % of control.

`COc1cc(/C=N\Nc2ccccc2[N+](=O)[O-])cc(OC)c1OC` was tested, and the T/C [4] was 87 % of control, the T/C [10] was 87 % of control and the T/C [11] was 91 % of control.

With `N#Cc1ccc(NC(=O)Nc2cccc(C#N)c2)cc1` the T/C [12] was 100 % of control and 103 % of control, the T/C [13] was 89 % of control and 92 % of control and 94 % of control and the T/C [14] was 91 % of control and 94 % of control. The T/C [15] was 94 % of control.

For `CC1(C)OC2(C=CC(C)([N+](=O)[O-])C=C2)OC1=O` (stereo unspecified), the T/C [7] was 101 % of control, the T/C [8] was 94 % of control and the T/C [9] was 100 % of control.

With `O=c1[nH]ccc2nncn12` the T/C [16] was 100 % of control, the T/C [17] was 106 % of control and the T/C [18] was 99 % of control.

`CC(=O)Nc1nc(N)nc(N)n1` was tested, and the T/C (dose: 50.0 mg/kg/injection, schedule: Q01DX009 (ip), vehicle: saline with Tween-80) was 106 % of control, the T/C (dose: 100.0 mg/kg/injection, schedule: Q01DX009 (ip), vehicle: saline with Tween-80) was 103 % of control and the T/C (dose: 200.0 mg/kg/injection, schedule: Q01DX009 (ip), vehicle: saline with Tween-80) was 88 % of control.

With `Cc1cc(N/N=C/c2ccc(N(CCCl)CCCl)cc2)nc2ccc(Cl)cc12` the T/C [1] was 97 % of control, the T/C [2] was 100 % of control and the T/C [3] was 100 % of control.

For `COc1cccc(Nc2ncnc3c2c(=O)n(C)c(=O)n3C)c1`, the T/C [19] was 91 % of control, the T/C [5] was 87 % of control and the T/C [6] was 87 % of control.

`O=C1CSc2ncccc2N1c1ccc([N+](=O)[O-])cn1` was tested, and the T/C (dose: 50.0 mg/kg/injection, schedule: Q01DX009 (ip), vehicle: suspension in saline) was 105 % of control, the T/C [2] was 100 % of control and the T/C (dose: 100.0 mg/kg/injection, schedule: Q01DX009 (ip), vehicle: suspension in saline) was 101 % of control. For the same compound, the T/C [3] was 96 % of control and the T/C (dose: 200.0 mg/kg/injection, schedule: Q01DX009 (ip), vehicle: suspension in saline) was 101 % of control.

In the case of `C=CCSc1ccc(Cl)cc1[N+](=O)[O-]`, the T/C (dose: 50.0 mg/kg/injection, schedule: Q01DX009 (ip), vehicle: Klucel (hydroxypropylcellulose) (HPC)) was 101 % of control, the T/C (dose: 100.0 mg/kg/injection, schedule: Q01DX009 (ip), vehicle: Klucel (hydroxypropylcellulose) (HPC)) was 100 % of control and the T/C (dose: 200.0 mg/kg/injection, schedule: Q01DX009 (ip), vehicle: Klucel (hydroxypropylcellulose) (HPC)) was 100 % of control.

In the case of `CN(C(N)=O)C1CCCC1`, the T/C [4] was 100 % of control, the T/C [10] was 109 % of control and the T/C [11] was 113 % of control.

For `CC(C)NC(=O)OCc1c(COC(=O)NC(C)C)c(Sc2ccccc2)n2c1CCC2`, the T/C [19] was 154 % of control, the T/C [5] was 163 % of control and the T/C [6] was 110 % of control.

`CCOC(=O)C1CSC(c2ccccc2)=N1` (stereo unspecified) was tested, and the T/C [13] was 109 % of control, the T/C [14] was 111 % of control and the T/C [15] was 111 % of control.

`Cc1ccc2nc(N(C)C)nc-2c2[nH]c(=O)[nH]c12` was tested, and the T/C (dose: 8.25 mg/kg/injection, schedule: Q01DX005 (ip), vehicle: saline) was 110 % of control, the T/C (dose: 16.5 mg/kg/injection, schedule: Q01DX005 (ip), vehicle: saline) was 110 % of control and the T/C (dose: 33.0 mg/kg/injection, schedule: Q01DX005 (ip), vehicle: saline) was 107 % of control. For the same compound, the T/C (dose: 66.0 mg/kg/injection, schedule: Q01DX005 (ip), vehicle: saline) was 102 % of control.

In the case of `CCC(=O)NC1=CCC(C(C)(C)C)CC1` (stereo unspecified), the T/C [5] was 102 % of control and the T/C [6] was 102 % of control.

With `COC(=O)C12OCC34C(CC5C(C)=CC(=O)C(O)C5(C)C3C(O)C1O)OC(=O)C(OC(=O)CC(C)C)C24` (stereo unspecified) the T/C (dose: 0.25 mg/kg/injection, schedule: Q01DX009 (ip), vehicle: saline + alcohol) was 124 % of control, the T/C (dose: 0.5 mg/kg/injection, schedule: Q01DX009 (ip), vehicle: saline + alcohol) was 122 % of control and the T/C (dose: 2.0 mg/kg/injection, schedule: Q01DX009 (ip), vehicle: saline + alcohol) was 163 % of control.

`C[N+]1(CCC(/C=C/c2ccc([N+](=O)[O-])cc2)=N\O)CCOCC1` was tested, and the T/C (dose: 7.5 mg/kg/injection, schedule: Q01DX005 (ip), vehicle: saline with Tween-80) was 107 % of control, the T/C (dose: 15.0 mg/kg/injection, schedule: Q01DX005 (ip), vehicle: saline with Tween-80) was 93 % of control and the T/C [12] was 100 % of control.

For `COc1ccc(N=C(CC(C)C)C2C(=O)c3ccccc3C2=O)cc1`, the T/C [7] was 100 % of control, the T/C [8] was 109 % of control and the T/C [9] was 104 % of control.

For `CC1(C)CN(C(C)(C)C)CC(C)(C)C(O)C1=O` (stereo unspecified), the T/C [16] was 100 % of control, the T/C [17] was 118 % of control and the T/C [18] was 104 % of control.

With `CC1=C(C)SC(=S)NN1` the T/C (dose: 3.12 mg/kg/injection, schedule: Q01DX009 (ip), vehicle: saline) was 96 % of control, the T/C (dose: 6.25 mg/kg/injection, schedule: Q01DX009 (ip), vehicle: saline) was 100 % of control and the T/C (dose: 12.5 mg/kg/injection, schedule: Q01DX009 (ip), vehicle: saline) was 100 % of control.

With `CN(C)CCCNCC#CCNCCCN(C)C` the T/C [1] was 100 % of control, the T/C [2] was 105 % of control and the T/C [3] was 105 % of control.

For `CC/C(Cc1ccc(OC)cc1)=C(/CC)c1ccc(OC)cc1`, the T/C [7] was 98 % of control, the T/C [8] was 92 % of control and the T/C [9] was 102 % of control.
